{"source": "ChEMBL document CHEMBL2176977", "about": "(J Med Chem, 2012)", "key": {"Rhesus monkey [1]": {"tested_on": "Rhesus monkey", "assay": "Reduction in morphine dependence in withdrawn rhesus monkey model assessed as attenuation of withdrawal effects at 0.5 mg/kg", "type": "functional, organism-based", "design": "dose 0.5 mg/kg", "conditions": "Macaca mulatta"}, "Rhesus monkey [2]": {"tested_on": "Rhesus monkey", "assay": "Reduction in morphine dependence in withdrawn rhesus monkey model assessed as attenuation of withdrawal effects at 0.1 mg/kg", "type": "functional, organism-based", "design": "dose 0.1 mg/kg", "conditions": "Macaca mulatta"}, "Mus musculus": {"tested_on": "Mus musculus", "assay": "Antinociceptive activity in mouse assessed as tail withdrawal latency at 100 mg/kg by 55 degC warm water test", "type": "functional"}, "Mu-type opioid receptor": {"target": "Mu-type opioid receptor (Cavia porcellus, UniProt P97266)", "sequence (P97266 whole entry)": "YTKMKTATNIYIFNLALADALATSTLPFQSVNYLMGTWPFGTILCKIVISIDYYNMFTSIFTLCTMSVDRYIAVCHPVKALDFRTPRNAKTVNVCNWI", "assay": "Agonist activity at MOR in guinea pig vas deferens", "type": "functional, tissue-based"}, "[3]": {"target": "Kappa-type opioid receptor (Cavia porcellus, UniProt P41144)", "sequence (P41144 whole entry)": "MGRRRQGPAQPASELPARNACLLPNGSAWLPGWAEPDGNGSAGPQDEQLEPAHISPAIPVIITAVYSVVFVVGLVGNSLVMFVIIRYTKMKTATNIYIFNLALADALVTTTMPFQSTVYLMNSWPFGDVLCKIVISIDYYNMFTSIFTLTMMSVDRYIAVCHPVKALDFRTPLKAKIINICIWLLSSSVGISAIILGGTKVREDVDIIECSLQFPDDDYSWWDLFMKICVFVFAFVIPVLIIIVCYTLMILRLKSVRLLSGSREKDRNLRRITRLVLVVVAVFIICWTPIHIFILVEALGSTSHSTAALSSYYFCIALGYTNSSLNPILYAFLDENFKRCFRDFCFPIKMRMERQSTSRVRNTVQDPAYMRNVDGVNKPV", "assay": "Agonist activity at KOR in guinea pig vas deferens", "type": "functional, tissue-based"}, "[4]": {"assay": "Agonist activity at DOR in guinea pig vas deferens", "type": "functional, tissue-based", "conditions": "Cavia porcellus"}, "[5]": {"assay": "Displacement of [3H]Cl-DPDPE from DOR in guinea pig brain membrane"}}, "note": "Calls of active or inactive are those of the source. No cut-off for these calls is given here.", "data": [{"smiles": "COC(=O)/C=C/C(=O)N[C@@]12CCC(=O)[C@@H]3Oc4c(O)ccc5c4[C@@]31CCN(CC1CC1)[C@@H]2C5", "values": [{"measurement": "Activity", "setting": "Rhesus monkey [1]", "value": "inactive"}, {"measurement": "Activity", "setting": "Rhesus monkey [2]", "value": "inactive"}]}, {"smiles": "CN1CC[C@]23c4c5ccc(O)c4O[C@H]2[C@@H](O)C=C[C@H]3[C@H]1C5", "note": "[MORPHINE]", "values": [{"measurement": "Activity", "setting": "Mus musculus", "value": 100, "unit": "%"}]}, {"smiles": "CO[C@]12CC[C@@]3(C[C@@H]1[C@](C)(O)C(C)(C)C)[C@H]1Cc4ccc(O)c5c4[C@@]3(CCN1CC1CC1)[C@H]2O5", "note": "[BUPRENORPHINE]", "values": [{"measurement": "EC50", "setting": "Mu-type opioid receptor", "value": 21, "unit": "nM"}, {"measurement": "EC50", "setting": "[3]", "value": 21, "unit": "nM"}]}, {"smiles": "CO[C@@]12CC[C@@]3(C[C@@H]1[C@](C)(O)C(C)(C)C)[C@H]1Cc4ccc(O)c5c4[C@@]3(CCN1CC1CC1)[C@H]2O5", "note": "[BUPRENORPHINE]", "values": [{"measurement": "EC50", "setting": "[4]", "value": 21, "unit": "nM"}, {"measurement": "Ki", "setting": "[5]", "value": 1.6, "unit": "nM"}]}]}
